{"source": "patent US20250109127A1", "about": "“METHODS OF USE OF PHENOXYPROPYLAMINE COMPOUNDS TO TREAT DEPRESSION” (Minerva Neurosciences, Inc., priority 2013, published 2025)", "test_system": "norepinephrin release in the rat prefrontal cortex", "assay": "Microdialysis: norepinephrine release in prefrontal cortex after I.P. administration", "type": "in vivo", "details": "for NOREPINEPHRIN in dialysate, MEAN / NOREPINEPHRIN in dialysate, individual animals: Citalopram 10 mg/kg I.P.", "description": "The aim of the study was to evaluate, using microdialysis, the effects of an intraperitoneal (I.P.) administration in rats of three different doses of SON-117 on dopamine and its metabolites, serotonin and its metabolite (5-HIAA), and norepinephrine levels in prefrontal cortex.\nThirty-two adult male Wistar rats were used for the whole study (4 groups of eight animals planned for the study, Table 1).\nSurgery was performed on rats weighing about 300 g at the beginning of the experiments. Rats were anaesthetized with Ketamine (50 mg/kg) & Xylazine (15 mg/kg) by intramuscular administration. The animals were placed in a stereotaxic apparatus in the flat-skull position at a constant setting of −3.3 mm between ear bars and the incisor bar. The animals were treated with a local anesthesic (xylocaine 1%, Astra Zeneca) and an analgesic (Temgesic, from Schering Plough, 0.05 mg/kg, s.c.). A rostrocaudal midline incision was made with a lancet to expose the dorsal skull surface. The “stereotaxic zero” was defined by the Bregma in accordance with Paxinos and Watson's atlas (1986). A hole was drilled in the skull with a drill and the meninges were pierced with a sterile needle to implant a CMA12 guide cannula which later received the dialysis probe.\nCoordinates used for implanting guide cannula in prefrontal cortex from Bregma were anteroposterior 3.7 mm, mediolateral 0.8 mm, and dorsoventral −2 mm (top of the probe was at −5 mm). The guide cannula was fixed to the skull with two stainless steel screws (1.88 mm outside diameter) anchored. An application of dental cement was added. A plastic collar allowed each animal to be tethered to a Swivel assembly of the CMA 120 awake animal system. Following surgery, rats were kept in individual cages and allowed to recover for a minimum of 3-5 days before the experimentation. The rats were handled and put in plastic bowl for 10 min at least every day to habituate the animals to their new environment for the dialysis. An I.P. administration with saline was also performed every day.\nDialysis probes (CMA12/3 mm, membrane, 20 kD cut-off, Carnegie Medicine, Stockholm, Sweden), were carefully washed before inserting into the guide cannula. The wash was performed with the artificial cerebrospinal fluid (aCSF) medium (NaCl 147 mM, KCl 2.7 mM, CaCl2 1.2 mM, MgCl2 0.85 mM) at room temperature. The dialysis system was then equilibrated at 20° C. at a perfusion rate of 1 μl/min with a Carnegie pump (CMA100). All catheters (FEP tubing, internal volume of 1.2 μl/10 cm, and tubing adaptors) used for microdialysis were treated in the same conditions.\nThe probes duly prepared were inserted into the guide cannula and the CMA120 Swivel assembly secured to the animal using a plastic collar. Flow through the dialysis probe with aCSF was maintained at a rate of 1 μl/min during the whole experimentation. The first four fractions (corresponding to 2 hours) were discarded to avoid the effects of parenchymal disturbance and to ensure that an approximate steady-state level was reached. Fractions were then collected over a period of 8.5 h during which time the animals remained quiet. The dialysates were automatically collected with an autosampler (microfraction collector CMA 140, Carnegie Medicin) and stored at −80° C. until analysis. […] Perfusion was then maintained for 7 hours with aCSF. The dialysates (30 μl) were collected into 300 μl vials, transferred into dry ice and then kept frozen (−80° C.) until analysis. Frozen samples were shipped to a partner for analysis. At the end of the microdialysis study, a PBS with colored ink was perfused through the probe in order to visualize the dialyzed area.\nCatecholamine assay: Concentrations of dopamine, DOPAC, HVA, 5-HIAA, 5-HT, and norepinephrin were determined for each sample by HPLC coupled with electrochemical detection. […]", "note": "“And” between values parts separate entries of the source, which are not always exact repeats. Equal values may be shown once.", "data": [{"smiles": "CN(C)CCCC1(c2ccc(F)cc2)OCc2cc(C#N)ccc21", "note": "(stereo not shown) [Citalopram, citalopram, reference compound]", "values": [{"measurement": "NOREPINEPHRIN in dialysate, MEAN", "setting": "T0-T30 min", "result": "82.58 % of respective basal"}, {"measurement": "NOREPINEPHRIN in dialysate, MEAN", "setting": "T30-T1 h", "result": "78.71 % of respective basal"}, {"measurement": "NOREPINEPHRIN in dialysate, individual animals", "setting": "T30-T1 h", "result": "63.38 % of respective basal and 110.18 % of respective basal and 80.74 % of respective basal and 67.88 % of respective basal and 82.89 % of respective basal and 87.03 % of respective basal and 121.77 % of respective basal and 15.77 % of respective basal"}, {"measurement": "NOREPINEPHRIN in dialysate, MEAN", "setting": "T1 h 30-T2 h", "result": "79.06 % of respective basal"}, {"measurement": "NOREPINEPHRIN in dialysate, individual animals", "setting": "T1 h 30-T2 h", "result": "61.03 % of respective basal and 124.09 % of respective basal and 72.92 % of respective basal and 60.40 % of respective basal and 82.59 % of respective basal and 82.64 % of respective basal and 134.98 % of respective basal and 13.8 % of respective basal"}, {"measurement": "NOREPINEPHRIN in dialysate, MEAN", "setting": "T1 h-T1 h 30", "result": "79.69 % of respective basal"}, {"measurement": "NOREPINEPHRIN in dialysate, individual animals", "setting": "T1 h-T1 h 30", "result": "76.17 % of respective basal and 109.19 % of respective basal and 82.90 % of respective basal and 61.59 % of respective basal and 83.93 % of respective basal and 87.19 % of respective basal and 123.99 % of respective basal and 12.53 % of respective basal"}, {"measurement": "NOREPINEPHRIN in dialysate, MEAN", "setting": "T2 h 30-T3 h", "result": "71.56 % of respective basal"}, {"measurement": "NOREPINEPHRIN in dialysate, individual animals", "setting": "T2 h 30-T3 h", "result": "59.14 % of respective basal and 93.64 % of respective basal and 64.43 % of respective basal and 55.24 % of respective basal and 91.72 % of respective basal and 74.05 % of respective basal and 121.10 % of respective basal and 13.15 % of respective basal"}, {"measurement": "NOREPINEPHRIN in dialysate, MEAN", "setting": "T2 h-T2 h 30", "result": "76.38 % of respective basal"}, {"measurement": "NOREPINEPHRIN in dialysate, individual animals", "setting": "T2 h-T2 h 30", "result": "73.97 % of respective basal and 105.30 % of respective basal and 76.17 % of respective basal and 58.36 % of respective basal and 86.59 % of respective basal and 74.01 % of respective basal and 122.28 % of respective basal and 14.33 % of respective basal"}, {"measurement": "NOREPINEPHRIN in dialysate, MEAN", "setting": "T3 h 30-T4 h", "result": "75.03 % of respective basal"}, {"measurement": "NOREPINEPHRIN in dialysate, individual animals", "setting": "T3 h 30-T4 h", "result": "60.36 % of respective basal and 105.62 % of respective basal and 79.83 % of respective basal and 62.35 % of respective basal and 87.18 % of respective basal and 69.08 % of respective basal and 122.62 % of respective basal and 13.22 % of respective basal"}, {"measurement": "NOREPINEPHRIN in dialysate, MEAN", "setting": "T3 h-T3 h 30", "result": "71.85 % of respective basal"}, {"measurement": "NOREPINEPHRIN in dialysate, individual animals", "setting": "T3 h-T3 h 30", "result": "59.65 % of respective basal and 96.31 % of respective basal and 77.47 % of respective basal and 56.34 % of respective basal and 86.44 % of respective basal and 66.43 % of respective basal and 119.71 % of respective basal and 12.42 % of respective basal"}, {"measurement": "NOREPINEPHRIN in dialysate, MEAN", "setting": "T4 h 30-T5 h", "result": "79.44 % of respective basal"}, {"measurement": "NOREPINEPHRIN in dialysate, individual animals", "setting": "T4 h 30-T5 h", "result": "76.82 % of respective basal and 116.23 % of respective basal and 73.73 % of respective basal and 66.68 % of respective basal and 84.54 % of respective basal and 70.81 % of respective basal and 127.26 % of respective basal and 19.47 % of respective basal"}, {"measurement": "NOREPINEPHRIN in dialysate, MEAN", "setting": "T4 h-T4 h 30", "result": "79.54 % of respective basal"}, {"measurement": "NOREPINEPHRIN in dialysate, individual animals", "setting": "T4 h-T4 h 30", "result": "77.6 % of respective basal and 102.09 % of respective basal and 77.48 % of respective basal and 63.90 % of respective basal and 92.86 % of respective basal and 82.33 % of respective basal and 128.7 % of respective basal and 11.39 % of respective basal"}, {"measurement": "NOREPINEPHRIN in dialysate, MEAN", "setting": "T5 h 30-T6 h", "result": "81.93 % of respective basal"}, {"measurement": "NOREPINEPHRIN in dialysate, individual animals", "setting": "T5 h 30-T6 h", "result": "48.16 % of respective basal and 103.46 % of respective basal and 105.10 % of respective basal and 86.55 % of respective basal and 85.91 % of respective basal and 79.07 % of respective basal and 122.12 % of respective basal and 25.1 % of respective basal"}, {"measurement": "NOREPINEPHRIN in dialysate, MEAN", "setting": "T5 h-T5 h 30", "result": "77.65 % of respective basal"}, {"measurement": "NOREPINEPHRIN in dialysate, individual animals", "setting": "T5 h-T5 h 30", "result": "88.27 % of respective basal and 76.54 % of respective basal and 75.84 % of respective basal and 77.15 % of respective basal and 75.13 % of respective basal and 134.83 % of respective basal and 15.76 % of respective basal"}, {"measurement": "NOREPINEPHRIN in dialysate, MEAN", "setting": "T6 h 30-T7 h", "result": "79.84 % of respective basal"}, {"measurement": "NOREPINEPHRIN in dialysate, individual animals", "setting": "T6 h 30-T7 h", "result": "52.47 % of respective basal and 107.42 % of respective basal and 80.22 % of respective basal and 89.35 % of respective basal and 83.18 % of respective basal"}, {"measurement": "NOREPINEPHRIN in dialysate, MEAN", "setting": "T6 h-T6 h 30", "result": "78.38 % of respective basal"}, {"measurement": "NOREPINEPHRIN in dialysate, individual animals", "setting": "T6 h-T6 h 30", "result": "51.36 % of respective basal and 106.33 % of respective basal and 79.91 % of respective basal and 87.03 % of respective basal and 82.07 % of respective basal and 79.77 % of respective basal and 119.62 % of respective basal and 20.91 % of respective basal"}, {"measurement": "NOREPINEPHRIN in dialysate, MEAN", "setting": "T-30 min-T0 (pre-dose)", "result": "95.22 % of respective basal"}, {"measurement": "NOREPINEPHRIN in dialysate, MEAN", "setting": "T-1 h 30-T-1 h (pre-dose)", "result": "92.87 % of respective basal"}, {"measurement": "NOREPINEPHRIN in dialysate, MEAN", "setting": "T-1 h-T-30 min (pre-dose)", "result": "109.53 % of respective basal"}, {"measurement": "NE concentration in prefrontal cortex, significant and stable slight decrease", "setting": "citalopram 10 mg/kg I.P., from 0.5 h to 7 h after administration", "result": 72, "unit": "%"}]}]}
